According to ChEMBL document CHEMBL1127169, “Syntheses of new 3-oxa-methano-PGI1 derivatives and their biological properties” (Bioorg Med Chem Lett, 1993):
In brackets after ≈: the same amount, converted by molar mass.

Tests used:
Oryctolagus cuniculus [1] = species on record: Oryctolagus cuniculus; assay: The compound was tested for inhibition of rabbit platelet aggregation induced by ADP, activity compared with PGE1 as standard was found to be <1/400; format: functional
Homo sapiens = species on record: Homo sapiens; assay: The compound was tested for inhibition of human platelet aggregation induced by ADP; format: functional
Cavia porcellus = species on record: Cavia porcellus; assay: The compound was tested for inhibition of guinea pig platelet aggregation induced by ADP; format: functional
Rattus norvegicus = species on record: Rattus norvegicus; assay: The compound was tested for inhibition of rat platelet aggregation induced by ADP; format: functional
Canis familiaris = species on record: Canis familiaris; assay: The compound was tested for inhibition of dog platelet aggregation induced by ADP; format: functional; conditions: Canis lupus familiaris
Oryctolagus cuniculus [2] = species on record: Oryctolagus cuniculus; assay: The compound was tested for inhibition of rabbit platelet aggregation induced by ADP; format: functional, organism-based
Oryctolagus cuniculus [3] = species on record: Oryctolagus cuniculus; assay: The compound was tested for inhibition of rabbit platelet aggregation induced by ADP; activity compared with PGE1 as standard was found to be 1/1.2; format: functional
Oryctolagus cuniculus [4] = species on record: Oryctolagus cuniculus; assay: The compound was tested for inhibition of rabbit platelet aggregation induced by collagen; format: functional
Oryctolagus cuniculus [5] = species on record: Oryctolagus cuniculus; assay: The compound was tested for inhibition of rabbit platelet aggregation induced by arachidonic acid; format: functional
Oryctolagus cuniculus [6] = species on record: Oryctolagus cuniculus; assay: The compound was tested for inhibition of rabbit platelet aggregation induced by ADP, activity compared with PGE1 as standard was found to be 1/80.; format: functional
Oryctolagus cuniculus [7] = species on record: Oryctolagus cuniculus; assay: The compound was tested for inhibition of rabbit platelet aggregation induced by ADP, activity compared with PGE1 as standard was found to be 1/3.6; format: functional
Oryctolagus cuniculus [8] = species on record: Oryctolagus cuniculus; assay: The compound was tested for inhibition of rabbit platelet aggregation induced by ADP, activity compared with PGE1 as standard; format: functional

IC50 (Homo sapiens)	IC50 (Cavia porcellus)	IC50 (Rattus norvegicus)	IC50 (Canis familiaris)	IC50 (Oryctolagus cuniculus [2])	IC50 (Oryctolagus cuniculus [4])	IC50 (Oryctolagus cuniculus [5])	Compound	Relative activity (Oryctolagus cuniculus [1])	further results
							CCCC[C@H](C)C[C@H](O)/C=C/[C@@H]1[C@H]2C[C@H](CCOCC(=O)O)C[C@H]2C[C@@H]1O	< 0.0025	
0.0125 µg/mL (≈ 0.0327 µM)	0.0031 µg/mL (≈ 0.0081 µM)	0.0098 µg/mL (≈ 0.0256 µM)	0.0043 µg/mL (≈ 0.0112 µM)	0.0241 µg/mL (≈ 0.063 µM)	0.0183 µg/mL (≈ 0.0478 µM)	0.0476 µg/mL (≈ 0.124 µM)	CCCC[C@H](C)C[C@H](O)/C=C/[C@@H]1[C@H]2C[C@H](CCOCC(=O)O)C[C@H]2C[C@H]1O		Relative activity (Oryctolagus cuniculus [3]): 0.833
							CCCC[C@H](C)C[C@@H](O)/C=C/[C@@H]1[C@H]2C[C@H](CCOCC(=O)O)C[C@H]2C[C@H]1O	< 0.0025	
							CCCCC[C@H](O)/C=C/[C@@H]1[C@H]2C[C@H](CCCCC(=O)O)C[C@H]2C[C@H]1O		Relative activity (Oryctolagus cuniculus [6]): 0.0125
							CCCC[C@@H](C)C[C@H](O)/C=C/[C@@H]1[C@H]2C[C@H](CCOCC(=O)O)C[C@H]2C[C@H]1O		Relative activity (Oryctolagus cuniculus [7]): 0.278
0.0136 µg/mL (≈ 0.0384 µM)	0.0025 µg/mL (≈ 0.00705 µM)	0.0344 µg/mL (≈ 0.097 µM)	0.0038 µg/mL (≈ 0.0107 µM)	0.0207 µg/mL (≈ 0.0584 µM)	0.0132 µg/mL (≈ 0.0372 µM)	0.0359 µg/mL (≈ 0.101 µM)	CCCCC[C@H](O)/C=C/[C@H]1[C@H](O)CC(=O)[C@@H]1CCCCCCC(=O)O [ALPROSTADIL]		Relative activity (Oryctolagus cuniculus [8]): 1
